Laboratory results: article PMC3668706, “Highly Divergent T-cell Receptor Binding Modes Underlie Specific Recognition of a Bulged Viral Peptide bound to a Human Leukocyte Antigen Class I Molecule” (The Journal of Biological Chemistry, 2013)

How the values were obtained:
[1] = test system: CA5 CTL clone; conditions: IFNγ intracellular staining, peptide-pulsed T2 cells, 4 h; performed twice
Procedure: CTL clones were tested against a range of antigen-presenting cells and assayed for intracellular expression of IFN-γ by flow cytometry using the BD Cytofix/Cytoperm kit (BD Biosciences) according to standard protocols. Briefly, clones were incubated with antigen-presenting cells at a stimulator to responder ratio of 1:2 for 4 h in the presence of brefeldin A (BioLegend). For peptide titration experiments, T2 cells were incubated with various concentrations of LPEP peptide for 1 h and then washed thoroughly prior to incubation with CTL clones. After stimulation, cells were stained with Live/Dead Fixable Aqua Dead Cell Stain (Invitrogen) and anti-CD8-Cy5.5-PerCP mAb (BioLegend) for 30 min at 4 °C. Cells were then washed, fixed, permeabilized, and labeled with anti-IFN-γ-antigen-presenting cell mAb (BioLegend) for 30 min at 4 °C. After a further wash, samples were collected using a FACSCanto II flow cytometer (BD Biosciences). Data were analyzed with FlowJo software (Tree Star). Lymphocytes were identified based on light scatter, then live CD8^+ T-cells were selected and IFN-γ^+ gates were drawn based on unstimulated controls.

[2] = test system: SB47 CTL clone; test: Intracellular IFN-γ staining, SB47 CTL clone with LPEP-pulsed T2 cells; type: cell-based, human; conditions: IFNγ intracellular staining, peptide-pulsed T2 cells, 4 h; performed twice
Procedure: Data were analyzed with FlowJo software (Tree Star).

With “LPEPLPQGQLTAY [LPEP peptide, 13-amino acid determinant from Epstein-Barr virus lytic Ag BZLF1, restricted by HLA-B*35:08]” the “recognition of LPEP presented by HLA-B*35:08 versus HLA-B*35:01 by CA5 CTL clone” value [1] was “preferentially recognized HLA-B*35:08^LPEP when the peptide was limited” and the “recognition of LPEP presented by HLA-B*35:08 versus HLA-B*35:01 by SB47 CTL clone” value [2] was “equally well”.
